A value given as a limit tells only on which side of the number the result lay.

This experiment has as its system HBV. Briefly: HepAD38 antiviral assay: reduction of viral product accumulation (virion DNA by qPCR, HBsAg/HBeAg by ELISA). It counts as cell-based. Conditions: Hepatitis B virus, 120 h, HepAD38 cells, 50% reduction of viral product accumulation vs no drug controls, five days after compound addition. How it is done: Methods: HepAD38 cells are maintained as previously reported (Ladner et al, Antimicrob. Agents Chemother. 1997, […], 1715). Briefly, cells are passaged upon attaining confluency in DMEM/F12 media in the presence of 10% FBS, Penn/Strep, 250 μg/mL G418, and 1 μg/ml tetracycline. Novel compounds are screened by first washing cells three times with PBS to remove tetracycline, and plating in 96 well plates at 35,000 cells/well. Compounds dissolved in DMSO are then diluted 1:200 into wells containing cells. Five days after compound addition, material is harvested for analysis. For an extended 8 day analysis, cells are plated and treated as described above, but media and compound are refreshed on d2 and d5 post initial treatment.
On harvest day, virion DNA is obtained by lysing with Sidestep Lysis and Stabilization Buffer and then quantified via quantitative real time PCR. Commercially available ELISA kits are used to quantitate the viral proteins HBsAg (Alpco) or HbeAg (US Biological) by following the manufacturer's recommended protocol after diluting samples to match the linear range of their respective assays. Irrespective of readout, compound concentrations that reduce viral product accumulation in the cell lysates or supernatants by 50% relative to no drug controls (EC50) are reported; EC50 ranges are as follows: A<0.1 μM; B 0.1-1 μM; C>1 μM.
Background: In qPCR the cycle at which signal appears reflects the starting amount.

`OC1CCCCC1CC1=C(c2cnn(C(F)F)c2)[C@H](c2ccc(F)cc2Cl)N=C(c2nccs2)N1` (some centres unmarked) [Example 46] gave an EC50 (class symbols) of 100 to 1000 nM.
`COC(=O)[C@](CO)(CC1=C(c2ccn(C(F)F)n2)[C@H](c2ccc(F)cc2Cl)N=C(c2nccs2)N1)NC(=O)OC(C)(C)C` [Example 63]: the EC50 (given as numeric bound) is greater than 400 nM.
Take `COC(=O)N[C@H]1CC2=C(c3cnn(C(F)F)c3)[C@H](c3ccc(F)cc3Cl)N=C(c3nccs3)N2C1` [Example 14]: under “class symbols”, the EC50 is less than 100 nM.
With `OC1CCCC1CC1=C(c2cnn(C(F)F)c2)[C@H](c2ccc(F)cc2Cl)N=C(c2nccs2)N1` (some centres unmarked) [Example 45], the EC50 (class symbols) lay within 100 to 1000 nM.
`C=CC[C@]1(COS(C)(=O)=O)CC2=C(c3cnn(C(F)F)c3)[C@H](c3ccc(F)cc3Cl)N=C(c3nccs3)N2C1` [Example 39]: the EC50 (given as numeric bound) is greater than 400 nM.
For `CN(C)C(=O)NCC1(F)CC2=C(c3cnn(C(F)F)c3)[C@H](c3ccc(F)cc3Cl)N=C(c3nccs3)N2C1` (some centres unmarked) [Example 44], under “class symbols”, the EC50 lay within 100 to 1000 nM.
Where the note is “given as numeric bound”, `CO/N=C/[C@]1(CC2=C(c3ccn(C(F)F)n3)[C@H](c3ccc(F)cc3Cl)N=C(c3nccs3)N2)COC(=O)N1` [Example 101] came in with an EC50 greater than 400 nM.
`[N-]=[N+]=NC[C@]1(O)CC2=C(c3ccn(C(F)F)n3)[C@H](c3ccc(F)cc3Cl)N=C(c3nccs3)N2C1` [Example 114] had an EC50 (class symbols) of 100 to 1000 nM.
Under “given as numeric bound”, `COC(=O)NC[C@@H]1CCC(=O)N1CC1=C(c2ccn(C(F)F)n2)[C@H](c2ccc(F)cc2Cl)N=C(c2nccs2)N1` [Example 133] gave an EC50 greater than 400 nM.
For `COC(=O)[C@](N)(CO)CC1=C(c2ccn(C(F)F)n2)[C@H](c2ccc(F)cc2Cl)N=C(c2nccs2)N1` [Example 62], the EC50 (given as numeric bound) is greater than 400 nM.
For `C[C@H]1OC[C@](F)(CC2=C(c3cnn(C(F)F)c3)[C@H](c3ccc(F)cc3Cl)N=C(c3nccs3)N2)CO1` [Example 139], for the setting “given as numeric bound”, the EC50 was greater than 400 nM.
On to `CS(=O)(=O)OC[C@]1(N=[N+]=[N-])CC2=C(c3cnn(C(F)F)c3)[C@H](c3ccc(F)cc3Cl)N=C(c3nccs3)N2C1` [Example 49], for which the EC50 (class symbols) lay in the range of 100 to 1000 nM.
As to `CC(C)(C)OC(=O)NC[C@@H]1CCC(=O)N1CC1=C(c2ccn(C(F)F)n2)[C@H](c2ccc(F)cc2Cl)N=C(c2nccs2)N1` [Example 131], under “given as numeric bound”, the EC50 is greater than 400 nM.
`CC(C)(C)OC(=O)NC[C@@H]1CN(CC2=C(c3ccn(C(F)F)n3)[C@H](c3ccc(F)cc3Cl)N=C(c3nccs3)N2)C(=O)O1` [Example 127] yielded an EC50 (given as numeric bound) greater than 400 nM.
Consider `O=S(=O)(N[C@H]1CC2=C(c3cnn(C(F)F)c3)[C@H](c3ccc(F)cc3Cl)N=C(c3nccs3)N2C1)N1CCCC1` [Example 19], for which the EC50 (class symbols) was less than 100 nM.
On to `COC(=O)NC[C@H]1CN(CC2=C(c3ccn(C(F)F)n3)[C@H](c3ccc(F)cc3Cl)N=C(c3nccs3)N2)C(=O)O1` [Example 125], for which the EC50 (given as numeric bound) is greater than 400 nM.
Where the note is “given as numeric bound”, `COC(=O)N[C@]1(C(=O)NCCC(=O)OC(C)(C)C)CC2=C(c3ccn(C(F)F)n3)[C@H](c3ccc(F)cc3Cl)N=C(c3nccs3)N2C1` [Example 80] yielded an EC50 greater than 400 nM.
`CNC(=O)OC[C@@]1(NC(=O)OC)CC2=C(c3ccn(C(F)F)n3)[C@H](c3ccc(F)cc3Cl)N=C(c3nccs3)N2C1` [Example 71] registered an EC50 (given as numeric bound) greater than 400 nM.
Molecule `COC(=O)[C@]1(O)CC2=C(c3ccn(C(F)F)n3)[C@H](c3ccc(F)cc3Cl)N=C(c3nccs3)N2C1` [Example 121] gave an EC50 (given as numeric bound) greater than 400 nM.
For `OC[C@]1(F)CC2=C(c3cnn(C(F)F)c3)[C@H](c3ccc(F)cc3Cl)N=C(c3nccs3)N2C1` [Example 148], the EC50 (class symbols) is 100 to 1000 nM.
The molecule `CC(C)S(=O)(=O)N[C@H]1CC2=C(c3cnn(C(F)F)c3)[C@H](c3ccc(F)cc3Cl)N=C(c3nccs3)N2C1` [Example 24] gave an EC50 (class symbols) of less than 100 nM.
On to `[N-]=[N+]=NCC1(F)CC2=C(c3cnn(C(F)F)c3)[C@H](c3ccc(F)cc3Cl)N=C(c3nccs3)N2C1` (some centres unmarked) [Example 41], for which, under “given as numeric bound”, the EC50 is greater than 400 nM.
Take `CC(=O)OC[C@]1(CC2=C(c3ccn(C(F)F)n3)[C@H](c3ccc(F)cc3Cl)N=C(c3nccs3)N2)COC(=O)N1` [Example 97]: the EC50 (class symbols) fell in the range of 100 to 1000 nM.
Same read-out and setting: for `CCCCS(=O)(=O)N[C@H]1CC2=C(c3cnn(C(F)F)c3)[C@H](c3ccc(F)cc3Cl)N=C(c3nccs3)N2C1` [Example 23] the value was less than 100 nM.
For `O=C[C@@]1(CC2=C(c3ccn(C(F)F)n3)[C@H](c3ccc(F)cc3Cl)N=C(c3nccs3)N2)COC(=O)N1` [Example 91], the EC50 (class symbols) is less than 100 nM.
`CC(C)(C)OC(=O)NC[C@H]1CCC(=O)N1CC1=C(c2ccn(C(F)F)n2)[C@H](c2ccc(F)cc2Cl)N=C(c2nccs2)N1` [Example 130] showed an EC50 (given as numeric bound) greater than 400 nM.
Where the note is “given as numeric bound”, `O=S(=O)(CC1=C(c2cnn(C(F)F)c2)[C@H](c2ccc(F)cc2Cl)N=C(c2nccs2)N1)C1CCCC1` [Example 145] registered an EC50 greater than 400 nM.
`CS(=O)(=O)NCC1CC2=C(c3cnn(C(F)F)c3)[C@H](c3ccc(F)cc3Cl)N=C(c3nccs3)N2C1` (some centres unmarked) [Example 30] yielded an EC50 (given as numeric bound) greater than 100 nM.
Regarding `OCC(O)(CO)CC1=C(c2ccn(C(F)F)n2)[C@H](c2ccc(F)cc2Cl)N=C(c2nccs2)N1` [Example 111], for the setting “class symbols”, the EC50 is less than 100 nM.
Regarding `C=CC[C@@]1(COS(C)(=O)=O)CC2=C(c3cnn(C(F)F)c3)[C@H](c3ccc(F)cc3Cl)N=C(c3nccs3)N2C1` [Example 40], the EC50 (given as numeric bound) was greater than 400 nM.
With `COC(=O)N[C@@]1(C(C)O)CC2=C(c3ccn(C(F)F)n3)[C@H](c3ccc(F)cc3Cl)N=C(c3nccs3)N2C1` (some centres unmarked) [Example 87], the EC50 (given as numeric bound) is greater than 400 nM.
Regarding `[N-]=[N+]=N[C@]1(CO)CC2=C(c3cnn(C(F)F)c3)[C@H](c3ccc(F)cc3Cl)N=C(c3nccs3)N2C1` [Example 50], the EC50 (class symbols) was less than 100 nM.
As for `C[C@H]1OC[C@@](F)(CC2=C(c3cnn(C(F)F)c3)[C@H](c3ccc(F)cc3Cl)N=C(c3nccs3)N2)CO1` [Example 140], where the note is “class symbols”, the EC50 fell in the range of 100 to 1000 nM.
For the setting “given as numeric bound”, `COC(=O)[C@@]1(O)CC2=C(c3ccn(C(F)F)n3)[C@H](c3ccc(F)cc3Cl)N=C(c3nccs3)N2C1` [Example 120] had an EC50 greater than 400 nM.
As for `COC(=O)N[C@]1(C(=O)O)CC2=C(c3ccn(C(F)F)n3)[C@H](c3ccc(F)cc3Cl)N=C(c3nccs3)N2C1` [Example 73], the EC50 (given as numeric bound) is greater than 400 nM.
In turn, `CN(C)C(=O)N[C@H]1CC2=C(c3cnn(C(F)F)c3)[C@H](c3ccc(F)cc3Cl)N=C(c3nccs3)N2C1` [Example 18] registered an EC50 (class symbols) of less than 100 nM.
On to `CCOC(=O)NC[C@@H]1CN(CC2=C(c3ccn(C(F)F)n3)[C@H](c3ccc(F)cc3Cl)N=C(c3nccs3)N2)C(=O)O1` [Example 129], for which, for the setting “given as numeric bound”, the EC50 was greater than 400 nM.
For the setting “given as numeric bound”, `COC(=O)[C@@]1(CC2=C(c3ccn(C(F)F)n3)[C@H](c3ccc(F)cc3Cl)N=C(c3nccs3)N2)COC(=O)N1` [Example 89] gave an EC50 greater than 400 nM.
Under “given as numeric bound”, `COC(=O)NC[C@H]1CCC(=O)N1CC1=C(c2ccn(C(F)F)n2)[C@H](c2ccc(F)cc2Cl)N=C(c2nccs2)N1` [Example 132] had an EC50 greater than 400 nM.
`CC(C)n1cc(C2=C3C[C@H](NS(=O)(=O)C4CC4)CN3C(c3nccs3)=N[C@H]2c2ccc(F)cc2Cl)cn1` [Example 5] displayed an EC50 (class symbols) of less than 100 nM.
`O=C(N[C@H]1CC2=C(c3cnn(C(F)F)c3)[C@H](c3ccc(F)cc3Cl)N=C(c3nccs3)N2C1)NS(=O)(=O)C1CC1` [Example 16] gave an EC50 (given as numeric bound) greater than 100 nM.
The molecule `O=C(N[C@H]1CC2=C(c3cnn(C(F)F)c3)[C@H](c3ccc(F)cc3Cl)N=C(c3nccs3)N2C1)NS(=O)(=O)c1ccccc1` [Example 17] displayed an EC50 (given as numeric bound) greater than 100 nM.
Still for that read-out and setting: for `COC(=O)CC[C@]1(CC2=C(c3ccn(C(F)F)n3)[C@H](c3ccc(F)cc3Cl)N=C(c3nccs3)N2)COC(=O)N1` [Example 106] the value was greater than 400 nM; for `CC(=O)NCC1CC2=C(c3cnn(C(F)F)c3)[C@H](c3ccc(F)cc3Cl)N=C(c3nccs3)N2C1` (some centres unmarked) [Example 29], greater than 100 nM.
With `Fc1ccc([C@@H]2N=C(c3nccs3)NC(C[C@]3(F)CO[C@H](c4ccccc4)OC3)=C2c2cnn(C(F)F)c2)c(Cl)c1` [Example 144], where the note is “given as numeric bound”, the EC50 is greater than 400 nM.
Under “class symbols”, `CC(=O)OC[C@@]1(N=[N+]=[N-])CC2=C(c3cnn(C(F)F)c3)[C@H](c3ccc(F)cc3Cl)N=C(c3nccs3)N2C1` [Example 59] yielded an EC50 of less than 100 nM.
For the molecule `COC(=O)[C@@]1(NS(=O)(=O)C2CC2)CC2=C(c3ccn(C(F)F)n3)[C@H](c3ccc(F)cc3Cl)N=C(c3nccs3)N2C1` [Example 68], the EC50 (given as numeric bound) is greater than 400 nM.
Turning to `CNC(=O)OC[C@]1(CC2=C(c3ccn(C(F)F)n3)[C@H](c3ccc(F)cc3Cl)N=C(c3nccs3)N2)COC(=O)N1` [Example 98], the EC50 (given as numeric bound) was greater than 400 nM.
Molecule `CS(=O)(=O)OCC1CC2=C(c3cnn(C(F)F)c3)[C@H](c3ccc(F)cc3Cl)N=C(c3nccs3)N2C1` (some centres unmarked) [Example 28] registered a concentration giving a half-maximal response (EC50) (given as numeric bound) greater than 100 nM.
For the setting “given as numeric bound”, `OCC(F)(F)CC1=C(c2cnn(C(F)F)c2)[C@H](c2ccc(F)cc2Cl)N=C(c2nccs2)N1` [Example 147] gave an EC50 greater than 400 nM.
With `OC[C@]1(O)CC2=C(c3ccn(C(F)F)n3)[C@H](c3ccc(F)cc3Cl)N=C(c3nccs3)N2C1` [Example 123], the EC50 (given as numeric bound) was greater than 400 nM.
Still for that read-out and setting: for `C=CCOC[C@]1(CC2=C(c3ccn(C(F)F)n3)[C@H](c3ccc(F)cc3Cl)N=C(c3nccs3)N2)COC(=O)N1` [Example 100] the value was greater than 400 nM.
As to `CCCS(=O)(=O)N[C@H]1CC2=C(c3cnn(C(F)F)c3)[C@H](c3ccc(F)cc3Cl)N=C(c3nccs3)N2C1` [Example 22], the EC50 (class symbols) is less than 100 nM.

The term EC50 denotes the concentration that produces a half-maximal response.

The values are drawn from patent US10723733B2, “Hepatitis B antiviral agents” (Enanta Pharmaceuticals, Inc., priority 2017, dated 2020).
